Measured values: PubChem BioAssay (NCI)
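These data come from cells grown in 96-well plates and exposed to compound for 48 hours at five concentrations. TGI: total growth inhibition.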

Tests used:
Experiment in all cases: DTP human tumour cell line panel, 48 h
CAKI-1 renal = tested on: CAKI-1 renal
NCI-H226 lung = tested on: NCI-H226 lung
COLO 205 colon = tested on: COLO 205 colon
DMS 273 small cell lung = tested on: DMS 273 small cell lung
SK-MEL-5 melanoma = tested on: SK-MEL-5 melanoma
NCI-H522 lung = tested on: NCI-H522 lung
A549 NSCLC = tested on: A549 NSCLC
OVCAR-4 ovarian = tested on: OVCAR-4 ovarian
KM12 colon = tested on: KM12 colon
HOP-92 NSCLC = tested on: HOP-92 NSCLC
SK-OV-3 ovarian = tested on: SK-OV-3 ovarian
MOLT-4 leukemia = tested on: MOLT-4 leukemia
HOP-62 NSCLC = tested on: HOP-62 NSCLC
M14 melanoma = tested on: M14 melanoma
UACC-257 melanoma = tested on: UACC-257 melanoma
NCI-H460 lung = tested on: NCI-H460 lung
OVCAR-5 ovarian = tested on: OVCAR-5 ovarian
IGROV1 ovarian = tested on: IGROV1 ovarian
SW-620 colon = tested on: SW-620 colon
SR leukemia = tested on: SR leukemia
HCC-2998 colon = tested on: HCC-2998 colon
M19-MEL melanoma = tested on: M19-MEL melanoma
EKVX NSCLC = tested on: EKVX NSCLC
HCT-15 colon = tested on: HCT-15 colon
XF 498 CNS = tested on: XF 498 CNS
DMS 114 small cell lung = tested on: DMS 114 small cell lung
DLD-1 colon = tested on: DLD-1 colon
SF-295 CNS = tested on: SF-295 CNS
K-562 leukemia = tested on: K-562 leukemia
HCT-116 colon = tested on: HCT-116 colon
HOP-18 NSCLC = tested on: HOP-18 NSCLC
SNB-75 CNS = tested on: SNB-75 CNS
SNB-19 CNS = tested on: SNB-19 CNS
ACHN renal = tested on: ACHN renal
HT29 colon = tested on: HT29 colon
HL-60(TB) leukemia = tested on: HL-60(TB) leukemia
SK-MEL-28 melanoma = tested on: SK-MEL-28 melanoma
LOX IMVI melanoma = tested on: LOX IMVI melanoma
SK-MEL-2 melanoma = tested on: SK-MEL-2 melanoma
OVCAR-8 ovarian = tested on: OVCAR-8 ovarian
RXF-631 renal = tested on: RXF-631 renal
UACC-62 melanoma = tested on: UACC-62 melanoma
SF-539 CNS = tested on: SF-539 CNS
U251 CNS = tested on: U251 CNS
KM20L2 colon = tested on: KM20L2 colon
NCI-H23 lung = tested on: NCI-H23 lung
TK-10 renal = tested on: TK-10 renal
LXFL 529 NSCLC = tested on: LXFL 529 NSCLC
RPMI-8226 leukemia = tested on: RPMI-8226 leukemia
SN12C renal = tested on: SN12C renal
OVCAR-3 ovarian = tested on: OVCAR-3 ovarian
RXF 393 renal = tested on: RXF 393 renal
MALME-3M melanoma = tested on: MALME-3M melanoma
CCRF-CEM leukemia = tested on: CCRF-CEM leukemia
SF-268 CNS = tested on: SF-268 CNS
786-0 renal = tested on: 786-0 renal
UO-31 renal = tested on: UO-31 renal
A498 renal = tested on: A498 renal
SNB-78 CNS = tested on: SNB-78 CNS

Measured: TGI

COc1ccc2[nH]cc(CCNC(=O)[C@](O)(Cc3cn(C)c4ccccc34)[C@@]3(O)OCC(O)C3O)c2c1 (stereo partly drawn)
not listed: UO-31 renal | A498 renal | SNB-78 CNS
> 100 µM: all other assays above

CCOP(=O)(OCC)C(C(=O)OC)C(=O)C(=O)Nc1c(C)cc(Br)cc1C (stereo not drawn)
not listed: SR leukemia | SF-295 CNS
> 100 µM: all other assays above

COc1ccccc1/C=C1\CCC(CCN2CCOCC2)C1=O (stereo not drawn)
not listed: COLO 205 colon | NCI-H522 lung | SK-OV-3 ovarian | U251 CNS
> 100 µM: all other assays above

COc1ccc(OC(C(=O)O)c2ccccc2)c2c1CCCC2=O (stereo not drawn)
not listed: NCI-H226 lung | SR leukemia | SNB-75 CNS | RXF 393 renal
> 100 µM: all other assays above
